Read-outs that look alike come from different tables or passages of the source.
How the values were obtained:
[1] = molecular target: T1, human RET kinase (Homo sapiens, UniProt P07949); test: RET Kinase Assay (LanthaScreen TR-FRET enzymatic assay); assay type: biochemical; details: 7 nM RET, 23 μM ATP
T1 construct: purchased Carna 08-159
Description: Compounds were tested in a LanthaScreen™ time-resolved fluorescence energy transfer (TR-FRET) enzymatic assay from Invitrogen. The assay used human RET kinase (Carna 08-159). Test compounds were prepared and diluted in DMSO in 3-fold serial dilutions to 50× of the final testing concentrations. The compounds were then further diluted to 5× by the kinase reaction buffer (50 mM HEPES pH 7.5, 0.0015% Brij-35). The enzymatic reaction for compound testing was performed in a white 384-well polypropylene plate (Corning 3573) with a total reaction volume of 25 μl containing 7 nM RET, 3 μM peptide substrate FAM-P2 (GL Biochem 112394), and 23 μM ATP (Sigma A7699-1G). The assay started with loading RET diluted in kinase reaction buffer to wells, followed by addition of equal volume of 5× compounds for 15-min incubation at the room temperature for pre-treatment. The enzymatic reaction was initiated by addition of mixture of the substrate and ATP prepared in kinase reaction buffer. After incubation at 28° C. for one hour, 25 μl of stopper buffer (a mixture of 100 mM HEPES pH 7.5 buffer, 0.015% Brij-35, 50 mM EDTA and 0.2% of coating reagent 3 (Cliper Lifesciences)) and produce TR-FRET signals. After 30 minutes of incubation at room temperature, the plate was read in a Caliper with the following settings: Excitation 340 nm (30)/Emission1 495 nm (10)/Emission2 520 nm (25). The TR-FRET values were dimensionless numbers that were calculated as the ratio of the acceptor ([…]) signal to the donor (Terbium) signal. Percent of control was calculated as the percentage of compound-treated vs 1% DMSO vehicle-treated. The dose-response curves were generated and the IC50s were calculated by nonlinear sigmoid curve fitting using XLFit.

[2] = molecular target: T2, human KDR kinase (Homo sapiens, UniProt P35968); test: KDR Kinase Assay (LanthaScreen TR-FRET enzymatic assay); assay type: biochemical; details: 1.2 nM KDR, 92 μM ATP
T2 construct: purchased Carna 08-191
Description: Compounds were tested in a LanthaScreen™ time-resolved fluorescence energy transfer (TR-FRET) enzymatic assay from Invitrogen. The assay used human KDR kinase (Carna 08-191). Test compounds were prepared and diluted in DMSO in 3-fold serial dilutions to 50× of the final testing concentrations. The compounds were then further diluted to 5× by the kinase reaction buffer (50 mM HEPES pH 7.5, 0.0015% Brij-35). The enzymatic reaction for compound testing was performed in a white 384-well polypropylene plate (Corning 3573) with a total reaction volume of 25 μl containing 1.2 nM KDR, 3 μM peptide substrate FAM-P22 (GL Biochem 112393), and 92 μM ATP (Sigma A7699-1G). The assay started with loading RET diluted in kinase reaction buffer to wells, followed by addition of equal volume of 5× compounds for 15-min incubation at the room temperature for pre-treatment. The enzymatic reaction was initiated by addition of mixture of the substrate and ATP prepared in kinase reaction buffer. After incubation at 28° C. for one hour, 25 μl of stopper buffer (a mixture of 100 mM HEPES pH 7.5 buffer, 0.015% Brij-35, 50 mM EDTA and 0.2% of coating reagent 3 (Cliper Lifesciences)) and produce TR-FRET signals. After 30 minutes of incubation at room temperature, the plate was read in a Caliper with the following settings: Excitation 340 nm (30)/Emission1 495 nm (10)/Emission2 520 nm (25). The TR-FRET values were dimensionless numbers that were calculated as the ratio of the acceptor ([…]) signal to the donor (Terbium) signal. Percent of control was calculated as the percentage of compound-treated vs 1% DMSO vehicle-treated. The dose-response curves were generated and the IC50s were calculated by nonlinear sigmoid curve fitting using XLFit.

[3] = test system: TT cells; test: TT Cell Proliferation Assay (WST-8, 8 days); assay type: cell-based; details: Homo sapiens, 192 h, growth inhibition in TT cells, read-out: TT Cellular Activity
Description: Compounds disclosed herein were tested for the inhibition of RET by a cancer cell proliferation assay commonly known as MTT assay. In this assay, a complete media was prepared by adding 10% fetal bovine serum to RPMI-1640 medium (Life technology). TT cells were added to each of 88 wells of a 96 well plate at a seeding density of 6,000 cells/well/90 μL. The cells were allowed to attach to the plate by incubating at 37° C. for 24 hours. The compound was dissolved in DMSO (SIGMA). A solution of test compound was prepared in complete media by serial dilution to obtain the following concentrations: 50 μM, 15 μM, 5 μM, 1.5 μM, 0.5 μM, 0.15 μM, 0.05 μM, 0.015 μM and 0.005 μM. The test compound solution (10 μL) was added to each of 80 cell-containing wells. The final concentrations of the compound were following: 5 μM, 1.5 μM, 0.5 μM, 0.15 μM, 0.05 μM, 0.015 μM, 0.005 μM, 0.0015 μM and 0.0005 μM. The final concentration of DMSO is 0.5%. To the 8 remaining cell-containing wells, only complete media (containing 0.5% DMSO) was added to form a control group in order to measure maximal proliferation. To the remaining 8 empty wells, complete media was added to for a vehicle control group in order to measure background. The plates were incubated at 37° C. for 8 days. 10 μL WST-8 solution (DOJINDO, Cell Counting KIT-8) was added to each well. The plates were further incubated at 37° C. for 5 hours, and then read for the absorbance using a microplate reader at 450 nm. The IC50 was calculated using GraphPad Prism.

T1 sequence (P07949 29-1114): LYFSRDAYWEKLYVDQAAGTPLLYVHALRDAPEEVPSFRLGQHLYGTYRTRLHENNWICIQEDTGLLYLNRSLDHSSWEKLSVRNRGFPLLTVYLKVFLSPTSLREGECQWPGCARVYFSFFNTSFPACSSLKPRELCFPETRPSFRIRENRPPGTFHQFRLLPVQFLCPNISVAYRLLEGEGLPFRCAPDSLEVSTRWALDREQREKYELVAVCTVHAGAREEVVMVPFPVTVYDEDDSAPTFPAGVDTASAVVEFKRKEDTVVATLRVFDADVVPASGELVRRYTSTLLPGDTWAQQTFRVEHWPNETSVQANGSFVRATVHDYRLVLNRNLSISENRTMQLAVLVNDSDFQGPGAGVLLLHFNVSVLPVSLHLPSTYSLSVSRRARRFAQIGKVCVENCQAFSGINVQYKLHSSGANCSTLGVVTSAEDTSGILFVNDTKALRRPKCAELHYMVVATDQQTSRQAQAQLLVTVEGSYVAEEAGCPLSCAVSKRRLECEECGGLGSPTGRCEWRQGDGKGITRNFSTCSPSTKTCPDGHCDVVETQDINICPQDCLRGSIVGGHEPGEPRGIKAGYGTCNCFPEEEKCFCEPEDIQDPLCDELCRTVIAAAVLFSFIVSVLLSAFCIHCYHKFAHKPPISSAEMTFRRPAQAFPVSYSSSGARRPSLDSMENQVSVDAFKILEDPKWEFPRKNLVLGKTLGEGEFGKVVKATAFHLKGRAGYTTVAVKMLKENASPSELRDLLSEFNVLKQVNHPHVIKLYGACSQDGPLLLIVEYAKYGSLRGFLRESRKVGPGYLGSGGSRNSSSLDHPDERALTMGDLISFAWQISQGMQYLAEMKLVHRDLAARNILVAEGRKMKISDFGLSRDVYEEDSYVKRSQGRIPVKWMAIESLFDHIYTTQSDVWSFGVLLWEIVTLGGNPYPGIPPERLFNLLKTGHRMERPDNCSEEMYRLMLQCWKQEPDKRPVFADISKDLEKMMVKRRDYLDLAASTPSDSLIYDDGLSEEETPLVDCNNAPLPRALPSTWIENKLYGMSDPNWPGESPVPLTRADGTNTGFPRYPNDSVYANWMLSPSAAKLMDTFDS
T2 sequence (P35968 20-1356): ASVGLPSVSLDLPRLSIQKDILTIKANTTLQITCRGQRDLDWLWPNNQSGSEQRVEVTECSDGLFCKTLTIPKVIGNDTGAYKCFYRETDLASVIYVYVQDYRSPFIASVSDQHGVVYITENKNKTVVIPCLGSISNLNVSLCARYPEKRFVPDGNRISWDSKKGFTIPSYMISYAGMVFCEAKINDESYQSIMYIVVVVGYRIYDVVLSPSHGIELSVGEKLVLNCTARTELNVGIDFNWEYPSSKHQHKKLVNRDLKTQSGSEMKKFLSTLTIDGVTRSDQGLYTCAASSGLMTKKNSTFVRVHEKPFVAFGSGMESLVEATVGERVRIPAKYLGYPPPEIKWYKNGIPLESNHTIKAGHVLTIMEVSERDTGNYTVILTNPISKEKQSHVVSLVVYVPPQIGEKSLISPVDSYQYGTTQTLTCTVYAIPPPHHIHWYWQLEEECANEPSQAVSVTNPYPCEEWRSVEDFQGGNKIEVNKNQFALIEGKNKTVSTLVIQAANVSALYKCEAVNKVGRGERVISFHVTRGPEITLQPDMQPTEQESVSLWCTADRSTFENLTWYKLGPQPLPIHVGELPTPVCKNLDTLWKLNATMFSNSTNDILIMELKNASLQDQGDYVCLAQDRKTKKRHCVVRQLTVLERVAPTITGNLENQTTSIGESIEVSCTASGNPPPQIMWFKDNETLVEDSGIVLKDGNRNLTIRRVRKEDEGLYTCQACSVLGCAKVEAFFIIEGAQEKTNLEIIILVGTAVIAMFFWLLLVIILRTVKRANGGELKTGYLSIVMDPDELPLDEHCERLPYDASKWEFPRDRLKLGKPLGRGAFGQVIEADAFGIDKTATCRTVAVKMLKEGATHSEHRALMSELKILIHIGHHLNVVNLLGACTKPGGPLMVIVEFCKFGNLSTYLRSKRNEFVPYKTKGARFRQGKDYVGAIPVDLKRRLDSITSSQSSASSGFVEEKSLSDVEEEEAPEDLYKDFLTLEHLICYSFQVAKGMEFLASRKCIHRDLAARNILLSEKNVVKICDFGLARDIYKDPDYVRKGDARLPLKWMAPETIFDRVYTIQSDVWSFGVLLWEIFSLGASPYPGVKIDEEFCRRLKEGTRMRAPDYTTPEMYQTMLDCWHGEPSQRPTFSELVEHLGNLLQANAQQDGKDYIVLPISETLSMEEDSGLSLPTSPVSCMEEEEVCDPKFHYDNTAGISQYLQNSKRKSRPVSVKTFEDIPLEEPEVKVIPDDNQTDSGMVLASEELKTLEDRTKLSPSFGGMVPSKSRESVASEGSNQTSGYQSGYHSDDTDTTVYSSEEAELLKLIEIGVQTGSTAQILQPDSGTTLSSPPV

Structure (SMILES) | IC50 [1] | IC50 [2] | IC50 ([3]; TT) | IC50 [3]
Cn1cc(-c2cc(-c3ccc(N4C[C@@H]5[C@H](C4)[C@H]5NC(=O)[C@H](O)c4ccccc4)nc3)c3c(C#N)cnn3c2)cn1 [Example 18, (R)-N-((1R,5S,6s)-3-(5-(3-cyano-6-(1-methyl-1H-pyrazol-4-yl)pyrazolo[1,5-a]pyridin-4-yl)pyridin-2-yl)-3-azabicyclo[3.1.0]hexan-6-yl)-2-hydroxy-2-phenylacetamide] | ≤ 10 nM | 10 to 50 nM |  | 10 to 50 nM
COc1ccc(C(=O)N[C@H]2[C@@H]3CN(c4ccc(-c5cc(-c6cnn(C)c6)cn6ncc(C#N)c56)cc4)C[C@@H]32)cn1 [Example 15, N-((1R,5S,6s)-3-(4-(3-cyano-6-(1-methyl-1H-pyrazol-4-yl)pyrazolo[1,5-a]pyridin-4-yl)phenyl)-3-azabicyclo[3.1.0]hexan-6-yl)-6-methoxynicotinamide] | 10 to 50 nM | 50 to 100 nM | 10 to 50 nM | 
CC(C)C(O)C(=O)NC12CC3CC(C1)N(c1ccc(-c4cc(OCC(C)(C)O)cn5ncc(C#N)c45)cn1)C(C3)C2 [Example 99, N-((1R,3 S,5s,7s)-2-(5-(3-cyano-6-(2-hydroxy-2-methylpropoxy)pyrazolo[1,5-a]pyridin-4-yl)pyridin-2-yl)-2-azaadamantan-5-yl)-2-hydroxy-3-methylbutanamide] | ≤ 10 nM | 10 to 50 nM | 10 to 50 nM | 
Cn1cc(-c2cc(-c3ccc(N4C[C@@H]5C[C@@](C)(NS(=O)(=O)c6c(F)cccc6Cl)C[C@@H]5C4)nc3)c3c(C#N)cnn3c2)cn1 [Example 59, 2-chloro-N-((3aR,5s,6aS)-2-(5-(3-cyano-6-(1-methyl-1H-pyrazol-4-yl)pyrazolo[1,5-a]pyridin-4-yl)pyridin-2-yl)-5-methyloctahydrocyclopenta[c]pyrrol-5-yl)-6-fluorobenzenesulfonamide] | ≤ 10 nM | ≤ 10 nM | ≤ 10 nM | 
CCOc1cc(-c2ccc(N3C[C@@H]4C[C@@](C)(NC(=O)c5nc(C)ccc5Cl)C[C@@H]4C3)nc2)c2c(C#N)cnn2c1 [Example 67, 3-chloro-N-((3aR,5s,6aS)-2-(5-(3-cyano-6-ethoxypyrazolo[1,5-a]pyridin-4-yl)pyridin-2-yl)-5-methyloctahydrocyclopenta[c]pyrrol-5-yl)-6-methylpicolinaniide] | ≤ 10 nM | > 100 nM | 50 to 100 nM | 
CC(C)(O)COc1cc(-c2ccc(N3C[C@@H]4C[C@@](C)(NC(=O)c5ncccc5F)C[C@@H]4C3)nc2)c2c(C#N)cnn2c1 [Example 128, N-((3aR,5s,6aS)-2-(5-(3-cyano-6-(2-hydroxy-2-methylpropoxy)pyrazolo[1,5-a]pyridin-4-yl)pyridin-2-yl)-5-methyloctahydrocyclopenta[c]pyrrol-5-yl)-3-fluoropicolinamide] | ≤ 10 nM | 10 to 50 nM | 10 to 50 nM | 
CC(O)COc1cc(-c2ccc(N3C[C@H]4CN(C(=O)c5ncccc5Cl)C[C@H]4C3)nc2)c2c(C#N)cnn2c1 (stereo partly drawn) [Example 8, 4-(6-((3aR,6aS)-5-(3-chloropicolinoyl)hexahydropyrrolo[3,4-c]pyrrol-2(1H)-yl)pyridin-3-yl)-6-(2-hydroxypropoxy)pyrazolo[1,5-a]pyridine-3-carbonitrile] | ≤ 10 nM | > 100 nM | 10 to 50 nM | 

More lines, main results first:

IC50 [1] | IC50 [2] | Structure (SMILES) | IC50 ([3]; TT) | IC50 [3]
≤ 10 nM | 10 to 50 nM | CC(C)C(O)C(=O)N1C[C@@H]2CN(c3ccc(-c4cc(-c5cnn(C)c5)cn5ncc(C#N)c45)cn3)C[C@@H]2C1 (stereo partly drawn) [Example 2] | 10 to 50 nM | 
≤ 10 nM | 10 to 50 nM | Cn1ccc(-c2cc(-c3cnc(N4C[C@@H]5C[C@@](C)(NC(=O)c6c(F)cccc6Cl)C[C@@H]5C4)cn3)c3c(C#N)cnn3c2)n1 [Example 100, 2-chloro-N-((3aR,5s,6aS)-2-(5-(3-cyano-6-(1-methyl-1H-pyrazol-3-yl)pyrazolo[1,5-a]pyridin-4-yl)pyrazin-2-yl)-5-methyloctahydrocyclopenta[c]pyrrol-5-yl)-6-fluorobenzamide] | ≤ 10 nM | 
≤ 10 nM | 10 to 50 nM | Cn1ccc(-c2cc(-c3cnc(N4C[C@@H]5C[C@@](C)(NC(=O)c6ncccc6F)C[C@@H]5C4)cn3)c3c(C#N)cnn3c2)n1 [Example 140, N-((3aR,5s,6aS)-2-(5-(3-cyano-6-(1-methyl-1H-pyrazol-3-yl)pyrazolo[1,5-a]pyridin-4-yl)pyrazin-2-yl)-5-methyloctahydrocyclopenta[c]pyrrol-5-yl)-3-fluoropicolinamide] | 10 to 50 nM | 
≤ 10 nM | ≤ 10 nM | Cn1cc(-c2cc(-c3ccc(N4C[C@@H]5[C@H](C4)[C@H]5NC(=O)c4cc(F)ccc4Cl)nc3)c3c(C#N)cnn3c2)cn1 [Example 28, 2-chloro-N-((1R,5S,6s)-3-(5-(3-cyano-6-(1-methyl-1H-pyrazol-4-yl)pyrazolo[1,5-a]pyridin-4-yl)pyridin-2-yl)-3-azabicyclo[3.1.0]hexan-6-yl)-5-fluorobenzamide] | 10 to 50 nM | 
≤ 10 nM | ≤ 10 nM | Cn1cc(-c2cc(-c3ccc(N4C[C@@H]5[C@@H](CNC(=O)c6ncc(F)cc6Cl)[C@@H]5C4)nc3)c3c(C#N)cnn3c2)cn1 [Example 85, 3-chloro-N-(((1R,5S,6s)-3-(5-(3-cyano-6-(1-methyl-1H-pyrazol-4-yl)pyrazolo[1,5-a]pyridin-4-yl)pyridin-2-yl)-3-azabicyclo[3.1.0]hexan-6-yl)methyl)-5-fluoropicolinamide] | ≤ 10 nM | 
≤ 10 nM | ≤ 10 nM | Cn1cc(-c2cc(-c3cnc(N4C[C@@H]5C[C@@](C)(NC(=O)c6c(F)cccc6Cl)C[C@@H]5C4)cn3)c3c(C#N)cnn3c2)cn1 [Example 141, 2-chloro-N-((3aR,5s,6aS)-2-(5-(3-cyano-6-(1-methyl-1H-pyrazol-4-yl)pyrazolo[1,5-a]pyridin-4-yl)pyrazin-2-yl)-5-methyloctahydrocyclopenta[c]pyrrol-5-yl)-6-fluorobenzamide] | ≤ 10 nM | 
≤ 10 nM | > 100 nM | CCOc1cc(-c2ccc(N3C[C@H]4CN(C(=O)c5ncccc5Cl)C[C@H]4C3)nc2)c2c(C#N)cnn2c1 [Example 6, 4-(6-((3aR,6aS)-5-(3-chloropicolinoyl)hexahydropyrrolo[3,4-c]pyrrol-2(1H)-yl)pyridin-3-yl)-6-ethoxypyrazolo[1,5-a]pyridine-3-carbonitrile] | 10 to 50 nM | 

Reference: patent US20220220128A1, “HETEROCYCLIC COMPOUNDS AS KINASE INHIBITORS, COMPOSITIONS COMPRISING THE HETEROCYCLIC COMPOUND, AND METHODS OF USE THEREOF” (JS Innopharm (Shanghai) Ltd, priority 2019, published 2022)
